Values quoted from earlier work in patent publication US20050250788A1, “Aqueous outflow enhancement with vasodilated aqueous cavity” (priority 2004, published 2005).
Counter-ions that a name gives are not always drawn.

Experiments:
[1] = at low concentrations
[2] = not given; remark: listed apart in the source
[3] = chronic, patients with essential hypertension
[4] = for area under the plasma concentration time curve / mean peak plasma concentration (C(max)): multiple oral once-daily doses of 200 mg
[5] = placebo-controlled, normal volunteers
[6] = test system: norepinephrine and dopamine neuronal reuptake
[7] = test system: adrenergic (alpha(1), alpha(2) and beta), cholinergic, GABA, dopaminergic, histaminergic, serotonergic (5-HT1A, 5-HT1B, 5-HT2) or benzodiazepine binding sites
[8] = not given; remark: listed apart in the source
[9] = topical

Compound: COc1ccccc1OCCNCC(O)c1ccc(C)c(S(N)(=O)=O)c1 (stereo not drawn) [5-[1-hydroxy-2-[2-(2-methoxyphenoxyl)ethylamino]ethyl]-2-methylbenzenesulfonamide]
- intraocular pressure reducing activity [1]: excellent intraocular pressure reducing activity

Compound: CC[C@@H]1C(=O)OC[C@@H]1Cc1cncn1C [Pilocarpine]
- output of clear fluid after administration into a glaucomatous eye: increase the output of clear fluid

Compound: CN[C@H]1CC[C@@H](c2ccc(Cl)c(Cl)c2)c2ccccc21 [Sertraline hydrochloride, (1S-cis)-4-(3,4-dichlorophenyl)-1,2,3,4-tetrahydro-N-methyl-1-nanphthalenamine hydrochloride]
- solubility in ethanol ([2]; ethanol): sparingly soluble
- solubility in isopropyl alcohol ([2]; isopropyl alcohol): slightly soluble
- solubility in water ([2]; water): slightly soluble

Compound: C[C@H](CS)C(=O)N1CCC[C@H]1C(=O)O [captopril]
- decrease in mean arterial pressure compared with placebo baseline [3]: equivalent decreases

Compound: N[C@H]1CC[C@@H](c2ccc(Cl)c(Cl)c2)c2ccccc21 [desmethylsertraline]
- elevation of plasma levels in the elderly ([4]; elderly, following multiple dosing): 3 fold
- half-life ([4]; metabolite, multiple oral once-daily doses of 200 mg sertraline): 65 h
- area under the plasma concentration time curve [4]: 2300 ng·h/mL
- mean peak plasma concentration (C(max)) [4]: 140 ng/mL

Compound: CNC(=O)Oc1ccc2c(c1)[C@]1(C)CCN(C)[C@@H]1N2C [eserine]
- output of clear fluid after administration into a glaucomatous eye: increase the output of clear fluid

Compound: CC(N/C(=N\C#N)Nc1ccncc1)C(C)(C)C (stereo not drawn) [pinacidil]
- decrease in mean arterial pressure compared with placebo baseline [3]: equivalent decreases

Compound: COc1cc2nc(N3CCN(C(=O)c4ccco4)CC3)nc(N)c2cc1OC [prazosin]
- decrease in mean arterial pressure compared with placebo baseline [3]: equivalent decreases

Compound: CN[C@H]1CC[C@@H](c2ccc(Cl)c(Cl)c2)c2ccccc21 [sertraline]
- dose proportionality ([4]; clinical dose range of 50 to 200 mg/day): Linear dose proportionality
- area under the plasma concentration time curve [4]: 2800 ng·h/mL
- mean peak plasma concentration (C(max)) [4]: 190 ng/mL
- increase of bioavailability by food ([4]; oral, with food): about 40%
- average terminal elimination half-life ([4]; single or multiple oral once-daily doses of 50 to 400 mg/day): approximately 26 hours
- psychomotor performance [5]: did not interfere with psychomotor performance
- sedation [5]: did not cause sedation
- effects on norepinephrine and dopamine neuronal reuptake [6]: only very weak effects
- affinity for binding sites [7]: no significant affinity
- plasma protein bound [8]: Approximately 98%

Compound: cyclosporin-A
- post-surgical increases in intraocular pressure [9]: reduce post-surgical increases in intraocular pressure
